Experimental data taken from article PMC9516332 (Frontiers in Oncology, 2022).
Read-outs that look alike come from different tables or passages of the source.

Tests used:
134 cancer cell lines = experiment: Cell viability assay (ATPlite, 72 hours), IC50 on cancer cell line panel
[1] = biological target: T1, panel of 255 wild-type kinases (Homo sapiens, UniProt Q8IW41); experiment: Kinase panel profiling at 1 µmol/L (MSA or IMAP), percentage inhibition; format: biochemical; conditions: MAPKAPK5; 1 µmol/L single concentration; read-out: %-inhibition, MAPKAPK5
T1 sequence (Q8IW41 1-473): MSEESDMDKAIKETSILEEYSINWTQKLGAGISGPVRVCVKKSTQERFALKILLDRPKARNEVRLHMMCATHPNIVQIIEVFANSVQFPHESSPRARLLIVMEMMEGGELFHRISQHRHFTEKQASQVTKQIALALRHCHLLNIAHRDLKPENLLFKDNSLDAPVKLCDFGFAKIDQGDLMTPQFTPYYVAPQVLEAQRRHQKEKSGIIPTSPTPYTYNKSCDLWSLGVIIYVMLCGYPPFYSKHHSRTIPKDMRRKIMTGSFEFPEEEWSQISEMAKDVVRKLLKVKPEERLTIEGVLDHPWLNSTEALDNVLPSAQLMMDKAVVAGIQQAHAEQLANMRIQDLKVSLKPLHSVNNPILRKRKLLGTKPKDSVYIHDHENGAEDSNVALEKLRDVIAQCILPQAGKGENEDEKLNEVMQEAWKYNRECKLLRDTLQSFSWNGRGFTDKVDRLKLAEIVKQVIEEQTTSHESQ

[2] = biological target: panel of 255 wild-type kinases (Homo sapiens, UniProt P45983); experiment: as above; format: biochemical; conditions: kinase JNK1; 1 µmol/L single concentration; read-out: %-inhibition at 1 µmol/L, JNK1

`COC(=O)N[C@@H](C)CNc1nccc(-c2cn(C(C)C)nc2-c2cc(Cl)cc(NS(C)(=O)=O)c2F)n1` [encorafenib] showed an IC50 (134 cancer cell lines; Homo sapiens, MV4-11, read-out: IC50 in cell proliferation assay, MV4-11 cell line (FLT3 ITD)) of 2280 nM, an IC50 (134 cancer cell lines; Homo sapiens, MeWo, read-out: IC50 in cell proliferation assay, MeWo cell line) of 1000 nM and an IC50 (134 cancer cell lines; Homo sapiens, NCCIT, read-out: IC50 in cell proliferation assay, NCC-IT cell line) of 1040 nM. The IC50 (134 cancer cell lines; Homo sapiens, NCI-H82, read-out: IC50 in cell proliferation assay, cell line NCI-H82) was 1070 nM, the IC50 (134 cancer cell lines; Homo sapiens, NCI-H460, read-out: IC50 in cell proliferation assay, NCI-H460 cell line) was 1160 nM and the IC50 (134 cancer cell lines; Homo sapiens, NCI-H661, read-out: IC50 in cell proliferation assay, NCI-H661 cell line) was 821 nM. For the same molecule, the IC50 (134 cancer cell lines; Homo sapiens, NCI-H716, read-out: IC50 in cell proliferation assay, cell line NCI-H716 (FGFR2-COL14A1)) was 9560 nM, the IC50 (134 cancer cell lines; Homo sapiens, NCI-H1650, read-out: IC50 in cell proliferation assay, NCI-H1650 cell line (EGFR exon19del)) was > 31600 nM and the IC50 (134 cancer cell lines; Homo sapiens, NCI-H1975, read-out: IC50 in cell proliferation assay, NCI-H1975 cell line (EGFR p.L858R + p.T790M)) was 1440 nM. For the same molecule, the IC50 (134 cancer cell lines; Homo sapiens, NCI-H2228, read-out: IC50 in cell proliferation assay, NCI-H2228 cell line (EML4-ALK)) was 2300 nM, the IC50 (134 cancer cell lines; Homo sapiens, OVCAR-3, read-out: IC50 in cell proliferation assay, cell line OVCAR-3) was 695 nM and the IC50 (134 cancer cell lines; Homo sapiens, PFSK-1, read-out: IC50 in cell proliferation assay, cell line PFSK-1) was 1000 nM. For the same molecule, the IC50 (134 cancer cell lines; Homo sapiens, RL95-2, read-out: IC50 in cell proliferation assay, cell line RL95-2 (EGFR p.A289V)) was 924 nM, the IC50 (134 cancer cell lines; Homo sapiens, RPMI-7951, read-out: IC50 in cell proliferation assay, cell line RPMI-7951 (BRAF p.V600E)) was 13 nM and the IC50 (134 cancer cell lines; Homo sapiens, RS4-11, read-out: IC50 in cell proliferation assay, cell line RS4;11) was 925 nM. For the same molecule, the IC50 (134 cancer cell lines; Homo sapiens, Rec1, read-out: IC50 in cell proliferation assay, cell line REC-1) was 8530 nM, the IC50 (134 cancer cell lines; Homo sapiens, SHP77, read-out: IC50 in cell proliferation assay, cell line SHP-77) was > 31600 nM and the IC50 (134 cancer cell lines; Homo sapiens, SK-BR-3, read-out: IC50 in cell proliferation assay, cell line SK-BR-3 (ERBB2 amplification)) was > 31600 nM. For the same molecule, the IC50 (134 cancer cell lines; Homo sapiens, SK-N-AS, read-out: IC50 in cell proliferation assay, cell line SK-N-AS) was 1110 nM, the IC50 (134 cancer cell lines; Homo sapiens, SK-N-FI, read-out: IC50 in cell proliferation assay, cell line SK-N-FI) was 3280 nM and the IC50 (134 cancer cell lines; Homo sapiens, SK-N-MC, read-out: IC50 in cell proliferation assay, cell line SK-N-MC) was 976 nM. It also gave an IC50 (134 cancer cell lines; Homo sapiens, SK-N-SH, read-out: IC50 in cell proliferation assay, cell line SK-N-SH (ALK p.F1174L)) of 1110 nM, an IC50 (134 cancer cell lines; Homo sapiens, SNU-5, read-out: IC50 in cell proliferation assay, cell line SNU-5 (MET amplification)) of 7360 nM and an IC50 (134 cancer cell lines; Homo sapiens, SNU-16, read-out: IC50 in cell proliferation assay, cell line SNU-16 (FGFR2 amplification)) of 1750 nM. The IC50 (134 cancer cell lines; Homo sapiens, SNU-C2B, read-out: IC50 in cell proliferation assay, cell line SNU-C2B (EGFR p.R165Q)) was 9590 nM, the IC50 (134 cancer cell lines; Homo sapiens, SU-DHL-1, read-out: IC50 in cell proliferation assay, cell line SU-DHL-1 (NPM1-ALK)) was 2150 nM and the IC50 (134 cancer cell lines; Homo sapiens, SU-DHL-6, read-out: IC50 in cell proliferation assay, cell line SU-DHL-6) was 5810 nM. For the same molecule, the IC50 (134 cancer cell lines; Homo sapiens, SUP-T1, read-out: IC50 in cell proliferation assay, cell line SUP-T1) was > 31600 nM, the IC50 (134 cancer cell lines; Homo sapiens, SW48, read-out: IC50 in cell proliferation assay, cell line SW48 (EGFR p.G719S)) was 2230 nM and the IC50 (134 cancer cell lines; Homo sapiens, SW480, read-out: IC50 in cell proliferation assay, cell line SW480) was 1220 nM. For the same molecule, the IC50 (134 cancer cell lines; Homo sapiens, SW626, read-out: IC50 in cell proliferation assay, cell line SW626) was 2440 nM, the IC50 (134 cancer cell lines; Homo sapiens, SW780, read-out: IC50 in cell proliferation assay, cell line SW780 (FGFR3-BAIAP2L1)) was 19800 nM and the IC50 (134 cancer cell lines; Homo sapiens, SW837, read-out: IC50 in cell proliferation assay, cell line SW837) was > 31600 nM. For the same molecule, the IC50 (134 cancer cell lines; Homo sapiens, SW872, read-out: IC50 in cell proliferation assay, cell line SW872 (BRAF p.V600E)) was 7 nM, the IC50 (134 cancer cell lines; Homo sapiens, SW900, read-out: IC50 in cell proliferation assay, cell line SW900) was 1390 nM and the IC50 (134 cancer cell lines; Homo sapiens, SW948, read-out: IC50 in cell proliferation assay, cell line SW948) was 3230 nM. For the same molecule, the IC50 (134 cancer cell lines; Homo sapiens, SW982, read-out: IC50 in cell proliferation assay, cell line SW982 (BRAF p.V600E)) was 549 nM, the IC50 (134 cancer cell lines; Homo sapiens, SW-620, read-out: IC50 in cell proliferation assay, cell line SW620) was 1810 nM and the IC50 (134 cancer cell lines; Homo sapiens, T98G, read-out: IC50 in cell proliferation assay, cell line T98G) was 1670 nM. For the same molecule, the IC50 (134 cancer cell lines; Homo sapiens, TCC-SUP, read-out: IC50 in cell proliferation assay, cell line TCCSUP) was 740 nM, the IC50 (134 cancer cell lines; Homo sapiens, THP-1, read-out: IC50 in cell proliferation assay, cell line THP-1) was 2460 nM and the IC50 (134 cancer cell lines; Homo sapiens, U2OS, read-out: IC50 in cell proliferation assay, cell line U2OS) was 1460 nM. The IC50 (134 cancer cell lines; Homo sapiens, U-87 MG, read-out: IC50 in cell proliferation assay, cell line U-87MG ATCC) was 1050 nM, the IC50 (134 cancer cell lines; Homo sapiens, U-118-MG, read-out: IC50 in cell proliferation assay, cell line U-118MG) was 1410 nM and the IC50 (134 cancer cell lines; Homo sapiens, UMUC3, read-out: IC50 in cell proliferation assay, cell line UM-UC-3) was 993 nM. It also gave an IC50 (134 cancer cell lines; Hs766T, read-out: IC50 in cell proliferation assay, Hs 766T cell line) of 1900 nM, an IC50 (134 cancer cell lines; L-82, read-out: IC50 in cell proliferation assay, L-82 cell line (NPM1-ALK)) of 8750 nM and an IC50 (134 cancer cell lines; Rh30, read-out: IC50 in cell proliferation assay, cell line Rh30) of 1080 nM. For the same molecule, the IC50 (134 cancer cell lines; read-out: IC50 in cell proliferation assay, 11-18 cell line (EGFR p.L858R)) was > 31600 nM, the IC50 (134 cancer cell lines; read-out: IC50 in cell proliferation assay, Hs 852.T cell line) was 3370 nM and the IC50 (134 cancer cell lines; read-out: IC50 in cell proliferation assay, JAR cell line) was 419 nM. For the same molecule, the IC50 (134 cancer cell lines; read-out: IC50 in cell proliferation assay, cell line 5637) was 586 nM, the IC50 (134 cancer cell lines; read-out: IC50 in cell proliferation assay, cell line A-388) was 2000 nM and the IC50 (134 cancer cell lines; read-out: IC50 in cell proliferation assay, cell line DB) was 1200 nM. It also gave an IC50 (134 cancer cell lines; read-out: IC50 in cell proliferation assay, cell line DEL (NPM1-ALK)) of 6420 nM, an IC50 (134 cancer cell lines; read-out: IC50 in cell proliferation assay, cell line ES-2 (BRAF p.V600E)) of 100 nM and an IC50 (134 cancer cell lines; read-out: IC50 in cell proliferation assay, cell line PA-1) of 841 nM. For the same molecule, the IC50 (134 cancer cell lines; read-out: IC50 in cell proliferation assay, cell line PC-3) was 1370 nM, the IC50 (134 cancer cell lines; read-out: IC50 in cell proliferation assay, cell line RD) was 1630 nM and the IC50 (134 cancer cell lines; read-out: IC50 in cell proliferation assay, cell line RKO (BRAF p.V600E)) was 244 nM. For the same molecule, the IC50 (134 cancer cell lines; read-out: IC50 in cell proliferation assay, cell line RL) was 29200 nM, the IC50 (134 cancer cell lines; read-out: IC50 in cell proliferation assay, cell line RT-4 (FGFR3-TACC3)) was 3770 nM and the IC50 (134 cancer cell lines; read-out: IC50 in cell proliferation assay, cell line SR (NPM1-ALK)) was 921 nM. For the same molecule, the IC50 (134 cancer cell lines; read-out: IC50 in cell proliferation assay, cell line T24) was 1050 nM, the IC50 (134 cancer cell lines; read-out: IC50 in cell proliferation assay, cell line TT (RET p.C634W)) was 5090 nM and the IC50 (134 cancer cell lines; read-out: IC50 in cell proliferation assay, cell line VA-ES-BJ) was 1130 nM. For the same molecule, the inhibition at 1 µM [1] was -4% and the inhibition at 1 µM [2] was 6%.
